Data on five compounds can be found in PMC6166781 (Nature structural & molecular biology, 2017).

Bounds are passed on as bounds.

The target in one test is α1β3L297Aγ2 GABAAR (Homo sapiens, UniProt P14867+P28472, L322A). In kind it is cell-based. As to conditions: for loss of sensitivity to potentiation versus wild type: L297A vs WT.
The next test deals with α1β3F301Aγ2 GABAAR (Homo sapiens, UniProt P14867+P28472, F326A). In kind it is cell-based.
The target of another test is α1β3γ2 GABAAR (Homo sapiens, UniProt P14867+P28472). In kind it is cell-based.
For a further test, the system named is GABAAR heteromers. As to conditions: cited from earlier work.
Test [1] has as its target T1, α5TMD (Homo sapiens, UniProt P28472+P31644, DEL351-357/DEL363-425/E358R/G348Q/K256N/R347S/W349P).
T1 sequence (P28472+P31644 with tags, fused parts or gaps P31644:K256N/P31644:R347S/P31644:G348Q/P31644:W349P/P31644:DEL351-357/P31644:E358R/P31644:DEL363-425): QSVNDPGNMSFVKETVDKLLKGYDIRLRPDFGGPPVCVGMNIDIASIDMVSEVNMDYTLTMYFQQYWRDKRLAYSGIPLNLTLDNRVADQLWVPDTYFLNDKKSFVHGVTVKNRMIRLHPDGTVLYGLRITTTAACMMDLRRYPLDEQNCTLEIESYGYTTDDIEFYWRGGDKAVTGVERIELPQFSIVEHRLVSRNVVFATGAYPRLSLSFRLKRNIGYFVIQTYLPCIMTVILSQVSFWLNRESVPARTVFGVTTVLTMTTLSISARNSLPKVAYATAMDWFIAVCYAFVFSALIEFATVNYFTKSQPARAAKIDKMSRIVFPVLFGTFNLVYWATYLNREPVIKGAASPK
The test can be described thus: Whole-cell patch-clamp of α5TMD in transfected HEK-293T cells. In kind it is cell-based.

In the next test the target is T2, α5TMD T287K Q245L (Homo sapiens, UniProt P28472, A271S/A273P/A277V/D270E/DELINS289-473[…]/I247V/I257T/I267L/I280V/L248I/L256M/L278F/M252L/S254C/S272V/T258V/V276T/W262L/Y269R).
T2 sequence (P28472 with tags, fused parts or gaps I247V/L248I/M252L/S254C/L256M/I257T/T258V/W262L/I267L/Y269R/D270E/A271S/S272V/A273P/V276T/A277V/L278F/I280V): T1 sequence (P28472+P31644 with tags, fused parts or gaps P31644:K256N/P31644:R347S/P31644:G348Q/P31644:W349P/P31644:DEL351-357/P31644:E358R/P31644:DEL363-425) with Q237L, T279K
In kind it is cell-based. As to conditions: leucine substitution of M1 Gln245.

For another test, the target named is T3, α5TMD T287K W249L (Homo sapiens, UniProt P28472, A271S/A273P/A277V/D270E/DELINS289-473LSISARNSLPKVAYAKAMDWFIAVCYAFVFSALIEFATVNYFTKSQPARAAKIDKMSRIVFPVLFGTFNLVYWATYLNREPVIKGAASPK/I247V/I257T/I267L/I280V/L248I/L256M/L278F/M252L/S254C/S272V/T258V/V276T/W262Q/W266L/Y269R).
T3 sequence (P28472 with tags, fused parts or gaps I247V/L248I/M252L/S254C/L256M/I257T/T258V/W262Q/W266L/I267L/Y269R/D270E/A271S/S272V/A273P/V276T/A277V/L278F/I280V): T1 sequence (P28472+P31644 with tags, fused parts or gaps P31644:K256N/P31644:R347S/P31644:G348Q/P31644:W349P/P31644:DEL351-357/P31644:E358R/P31644:DEL363-425) with W241L, T279K
In kind it is cell-based.

The next test has as its target T4, α5TMD Q245W (Homo sapiens, UniProt P28472, A271S/A273P/A277V/D270E/DELINS289-473LSISARNSLPKVAYATAMDWFIAVCYAFVFSALIEFATVNYFTKSQPARAAKIDKMSRIVFPVLFGTFNLVYWATYLNREPVIKGAASPK/I247V/I257T/I267L/I280V/L248I/L256M/L278F/M252L/S254C/S272V/T258V/V276T/Y269R).
T4 sequence (P28472 with tags, fused parts or gaps I247V/L248I/M252L/S254C/L256M/I257T/T258V/I267L/Y269R/D270E/A271S/S272V/A273P/V276T/A277V/L278F/I280V): T1 sequence (P28472+P31644 with tags, fused parts or gaps P31644:K256N/P31644:R347S/P31644:G348Q/P31644:W349P/P31644:DEL351-357/P31644:E358R/P31644:DEL363-425) with Q237W
In words: Thermostability binding experiment.

The target of test [2] is T5, α5TMD T287K (chimeric GABAAR, β3 subunit ECD fused to α5 subunit TMD) (Homo sapiens, UniProt P28472, A271S/A273P/A277V/D270E/DELINS289-473[…]/I247V/I257T/I267L/I280V/L248I/L256M/L278F/M252L/S254C/S272V/T258V/V276T/W262Q/Y269R).
T5 sequence (P28472 with tags, fused parts or gaps I247V/L248I/M252L/S254C/L256M/I257T/T258V/W262Q/I267L/Y269R/D270E/A271S/S272V/A273P/V276T/A277V/L278F/I280V): T1 sequence (P28472+P31644 with tags, fused parts or gaps P31644:K256N/P31644:R347S/P31644:G348Q/P31644:W349P/P31644:DEL351-357/P31644:E358R/P31644:DEL363-425) with T279K
In kind it is cell-based. As to conditions: T287K background; n = 6.

Test [3] deals with T6, α5TMD T287K (chimeric GABAAR, β3 subunit ECD fused to α5 subunit TMD) (Homo sapiens, UniProt P28472, A271S/A273P/A277V/D270E/DELINS289-473LSISARNSLPKVAYAKAMDWFIAVCYAFVFSALIEFATVNYFTKSQPARAAKIDKMSRIVFPVLFGTFNLVYWATYLNREPVIKGAASPK/I247V/I257T/I267L/I280V/L248I/L256M/L278F/M252L/S254C/S272V/T258V/V276T/W262Q/Y269R).
T6 sequence (P28472 with tags, fused parts or gaps I247V/L248I/M252L/S254C/L256M/I257T/T258V/W262Q/I267L/Y269R/D270E/A271S/S272V/A273P/V276T/A277V/L278F/I280V): T1 sequence (P28472+P31644 with tags, fused parts or gaps P31644:K256N/P31644:R347S/P31644:G348Q/P31644:W349P/P31644:DEL351-357/P31644:E358R/P31644:DEL363-425) with T279K
In kind it is cell-based. To be noted: EC50 of potentiation of histamine EC10-15 responses, Fig. 1e; n = 6.

For a further test, the target named is T7, α5TMD Q245L (Homo sapiens, UniProt P28472, A271S/A273P/A277V/D270E/DELINS289-473LSISARNSLPKVAYATAMDWFIAVCYAFVFSALIEFATVNYFTKSQPARAAKIDKMSRIVFPVLFGTFNLVYWATYLNREPVIKGAASPK/I247V/I257T/I267L/I280V/L248I/L256M/L278F/M252L/S254C/S272V/T258V/V276T/W262L/Y269R).
T7 sequence (P28472 with tags, fused parts or gaps I247V/L248I/M252L/S254C/L256M/I257T/T258V/W262L/I267L/Y269R/D270E/A271S/S272V/A273P/V276T/A277V/L278F/I280V): T1 sequence (P28472+P31644 with tags, fused parts or gaps P31644:K256N/P31644:R347S/P31644:G348Q/P31644:W349P/P31644:DEL351-357/P31644:E358R/P31644:DEL363-425) with Q237L
In words: Thermostability binding experiment.

A further test addresses T8, α5TMD T287K T309A (Homo sapiens, UniProt P28472, A271S/A273P/A277V/D270E/DELINS289-473LSISARNSLPKVAYAKAMDWFIAVCYAFVFSALIEFAAVNYFTKSQPARAAKIDKMSRIVFPVLFGTFNLVYWATYLNREPVIKGAASPK/I247V/I257T/I267L/I280V/L248I/L256M/L278F/M252L/S254C/S272V/T258V/V276T/W262Q/Y269R).
T8 sequence (P28472 with tags, fused parts or gaps I247V/L248I/M252L/S254C/L256M/I257T/T258V/W262Q/I267L/Y269R/D270E/A271S/S272V/A273P/V276T/A277V/L278F/I280V): T1 sequence (P28472+P31644 with tags, fused parts or gaps P31644:K256N/P31644:R347S/P31644:G348Q/P31644:W349P/P31644:DEL351-357/P31644:E358R/P31644:DEL363-425) with T279K, T301A
In kind it is cell-based.

The target in test [4] is T1, α5TMD. The test can be described thus: Thermostability binding experiment.

As to `CC(=O)[C@H]1CC[C@H]2[C@@H]3CC[C@H]4C[C@H](O)CC[C@]4(C)[C@H]3CC[C@]12C` [allopregnanolone], the 50% effective concentration (EC50) at α1β3L297Aγ2 GABAAR was found to be 1.6 ± 0.2 µM; on α1β3F301Aγ2 GABAAR, 0.26 ± 0.06 µM; on α1β3γ2 GABAAR it was 0.28 ± 0.04 µM. Besides, on α1β3L297Aγ2 GABAAR, the “loss of sensitivity to potentiation versus wild type” value came out at 5 fold.

With `CC(=O)[C@H]1CC[C@H]2[C@@H]3CC[C@@H]4C[C@@H](O)CC[C@]4(C)[C@H]3CC[C@]12C` [epipregnanolone], the “potentiation of GABAAR heteromers (qualitative)” value in the test on GABAAR heteromers is listed as “weak potentiator”.

As for `NCCc1c[nH]cn1` [histamine], on α5TMD [1] (Fig. 1a), the “agonist effect on receptor current” value is “activated and then desensitised”.

For the compound `CC(=O)[C@H]1CC[C@H]2[C@@H]3CC[C@@H]4C[C@H](O)CC[C@]4(C)[C@H]3CC[C@]12C` [pregnanolone], on α5TMD T287K Q245L, the “potentiation of histamine EC10-15 responses” value is on record as “ablated”. Also, the EC50 is 2.5 ± 0.2 µM on α1β3L297Aγ2 GABAAR; greater than 10 µM on α5TMD T287K W249L; greater than 30 µM on α5TMD Q245W; 1.3 ± 0.1 µM in test [3]; greater than 30 µM on α5TMD Q245L; 0.28 ± 0.04 µM at α1β3F301Aγ2 GABAAR. In addition, the figures for the EC50 at α5TMD T287K T309A, at α1β3γ2 GABAAR and on α5TMD [4] were 2.2 ± 0.3 µM, 0.24 ± 0.02 µM and 5.5 ± 0.3 µM, respectively. Also, the “loss of sensitivity to potentiation versus wild type” value at α1β3L297Aγ2 GABAAR is recorded as 10 fold. The “potentiation of submaximal (EC10-15) histamine doses” value in test [2] came to 325 ± 104%.

On to picrotoxin, for which the “effect on spontaneous inward leak current” value on α5TMD [1] (Fig. 1b) is “blocks a spontaneous inward leak current”.
